Marks after values point to notes of the source that are not given here.
Assays:
[1] = system: APP levels in WT and Fmr-1 KO SN; assay: Western blot of steady-state APP levels in synaptoneurosomes; format: cell-based, mouse
Method: FIG. 3 is a result from western blot analysis illustrating differential regulation of APP levels in WT and KO SN. Western blots of WT (top panel) and KO (bottom panel) SN treated in the presence or absence of DHPG (at 5, 10 and 20 min of incubation) were probed with anti-APP and anti-β-actin (control) antibodies.
Western blot analysis. Aliquots of SNs were collected at 5, 10, and 20 min after DHPG treatment, quenched with an equal volume of 2×SDS sample buffer (8% SDS, 24% glycerol, 100 mM Tris (pH 6.8), 4% β-mercaptoethanol, 0.02% bromophenol blue, 2% Triton X-100, 2% deoxycholate, 2% NP-40 alternative, and 2% sarkosyl) and boiled for 5 min prior to analysis by 12% SDS-PAGE. The separated proteins were transferred to a 0.45 μm nitrocellulose membrane in Towbin buffer containing 20% methanol with a Criterion Blotter (Bio-Rad, http://www.bio-rad.com; 100 V, 4° C., 75 min). The membranes were blocked in 5% nonfat dry milk and hybridized with anti-rabbit APP antibody (dilution, 1 μg/ml) and anti-mouse β-actin antibody (dilution, 1:20,000) followed by hybridization with anti-rabbit or anti-mouse HRP-conjugated secondary antibodies (dilution, 1:2000). […]
In order to assess changes in steady-state APP levels, rather than new protein synthesis, APP was measured in WT and Fmr-1 KO SN in response to DHPG by western blot analysis (FIG. 3). […]

[2] = system: audiogenic seizures in mice; assay: Audiogenic seizure (AGS) testing; format: in vivo, mouse; conditions: MPEP 30 mg/kg I.P. 30 min prior to AGS testing
Method: Audiogenic Seizure Testing, Data Analyses and mGluR5 Blockade: All mouse strains were tested at postnatal day 21, the peak of AGS sensitivity. The experimental apparatus consisted of a clear, Plexiglas box (13″L×8″W×7″H) with the sound source located inside the box (LOUD KEY™ jogger's alarm). Mice were weighed and then placed individually into the center of the chamber and exposed to a siren that generated noise at 118 dB for 5 min. Loud, acoustic stimulation causes wild running (WR) behavior within 20-30 sec followed by erratic leaping, clonic convulsions and tonic hind limb extension by 40-50 sec followed by respiratory arrest and death (Chen, et al., 2001, Neuroscience 103, 1043-1050). The animals were scored for the latency time of wild running (WR), AGS and respiratory arrest (death). […] MPEP was a kind gift from FRAXA Research Foundation (Newburyport, Mass.) and was dissolved at 1 mg/mL in DPBS before I.P. injection at 30 mg/kg body weight 30 min prior to AGS testing.
Tg2576 mice over-expressed hAPPSwe and hAβ. FRAXAD were a cross between fmr-1^−/− (Fragile X mouse model) and Tg2576 (AD mouse model) and generated 23% more brain hAβ1-40 than Tg2576 (Westmark et al., 2008, Int J Clin Exp Pathol 1: 157-168). […] It was determined whether hAPPSwe/hAβ over-expression in an fmr-1 null background (FRAXAD mice) increased AGS. C57BL/6 fmr-1^−/− mice were sensitive to AGS from 15-47 days with a peak at 21 days (Yan et al., 2005, Neuropharmacology 49: 1053-1066). AGS in WT, fmr-1^−/−, Tg2576 and FRAXAD mice was examined at 21 days of age. Mice were transferred to a Plexiglas box (13″L×8″W×7″H) shortly after weaning and exposed to high pitch siren (118 dB) from a personal body alarm (LOUD KEY™).
A common denominator between Fragile X Syndrome (FXS), Downs Syndrome (DS), and Alzheimer's Disease (AD) is the over-expression of amyloid precursor protein (APP) and/or beta-amyloid (Aβ). […] Additionally, methods that decreased APP/Aβ levels were expected to reduce AGS. Accordingly, AGS rates were examined in AD, FXS and DS mouse models. AGS rates for FRAXAD, Tg2576, and fmr-1^−/−, Ts65Dn were described above in Example 6. Here, the ability of 2-methyl-6-(phenylethynyl)pyridine hydrochloride (MPEP) to attenuate AGS was assessed. Tg2576 and FRAXAD mice were treated with MPEP for 30 min prior to AGS stimulation to assess the effect of mGluR5 blockade on seizure propensity in AD mouse models.

mGluR5 = mGluR5 (Homo sapiens, UniProt P41594); conditions: shared allosteric modulatory site; cited from earlier work
[3] = system: PTZ-induced seizures in WT, Fmr-1 KO, Tg2576 and FRAXAD mice; assay: PTZ seizure induction after MPEP pre-treatment; format: in vivo, mouse; conditions: 30 mg/kg MPEP I.P. 30 min prior to PTZ
Method: To assess the impact of mGluR5 inhibition on seizure phenotypes, Frm-1 KO, Tg2576, and FRAXAD mice were treated with mGluR5 antagonist, MPEP. Tg2576, FRAXAD and littermate controls were treated with 30 mg/kg MPEP (via I.P. injections) 30 min prior to seizure induction with PTZ. The experimental results presented in Table 2 support MPEP's effect as an anti-convulsant in both WT and Fmr-1 KO mice. WT male mice reach a grade 3 seizure, fully developed minimal seizure with clonus of the head muscles and forelimbs, at a rate of 50% in response to 50 mg/kg PTZ, but only 20% achieve a grade 3 seizure with MPEP treatment 30 min prior to PTZ (statistically significant, χ^2 test, p<0.0005). Likewise, there was a reduction from 11% to 0%, 46% to 25%, and 40% to 33% in WT females, Fmr-1 KO males and Fmr-1 KO females, respectively when tested using the seizure induction assay.

Sequence of mGluR5 (P41594 21-1212): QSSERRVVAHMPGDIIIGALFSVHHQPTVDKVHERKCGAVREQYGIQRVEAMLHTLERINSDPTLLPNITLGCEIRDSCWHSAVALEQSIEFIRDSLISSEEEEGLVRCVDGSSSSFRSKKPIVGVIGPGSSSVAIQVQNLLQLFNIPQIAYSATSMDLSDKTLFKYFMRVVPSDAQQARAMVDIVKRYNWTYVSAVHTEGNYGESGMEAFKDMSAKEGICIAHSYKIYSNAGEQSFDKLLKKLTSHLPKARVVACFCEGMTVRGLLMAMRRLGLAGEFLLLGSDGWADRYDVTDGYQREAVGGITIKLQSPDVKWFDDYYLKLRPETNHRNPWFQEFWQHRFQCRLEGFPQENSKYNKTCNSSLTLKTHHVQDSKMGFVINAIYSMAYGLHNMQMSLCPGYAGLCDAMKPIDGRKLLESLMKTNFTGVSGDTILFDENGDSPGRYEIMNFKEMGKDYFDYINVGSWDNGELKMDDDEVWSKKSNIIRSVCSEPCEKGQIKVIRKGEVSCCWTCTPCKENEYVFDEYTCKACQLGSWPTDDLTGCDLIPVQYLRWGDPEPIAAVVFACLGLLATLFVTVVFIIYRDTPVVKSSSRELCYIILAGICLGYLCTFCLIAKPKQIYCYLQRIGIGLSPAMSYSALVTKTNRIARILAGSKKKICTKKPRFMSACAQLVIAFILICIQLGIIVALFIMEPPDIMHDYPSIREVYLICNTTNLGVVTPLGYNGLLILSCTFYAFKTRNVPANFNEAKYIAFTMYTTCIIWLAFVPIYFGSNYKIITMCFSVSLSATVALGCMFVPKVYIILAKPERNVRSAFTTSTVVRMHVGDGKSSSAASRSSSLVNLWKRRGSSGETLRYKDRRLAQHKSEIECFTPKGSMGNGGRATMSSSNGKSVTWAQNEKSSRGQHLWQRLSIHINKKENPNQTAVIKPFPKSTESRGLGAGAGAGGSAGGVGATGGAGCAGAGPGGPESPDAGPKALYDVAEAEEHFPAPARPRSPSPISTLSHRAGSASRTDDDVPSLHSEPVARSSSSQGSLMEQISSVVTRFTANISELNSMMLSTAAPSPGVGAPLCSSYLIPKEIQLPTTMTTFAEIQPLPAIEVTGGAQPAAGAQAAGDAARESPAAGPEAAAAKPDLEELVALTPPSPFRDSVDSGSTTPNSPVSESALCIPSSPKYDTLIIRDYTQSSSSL

## N[C@@H](C(=O)O)c1cc(O)cc(O)c1 (racemic) [DHPG, (R,S)-3,5-dihydroxyphenylglycine]
[1]; Fmr-1 KO SN, DHPG
  increase in total APP levels: completely absent
[1]; WT SN, within 5 min of DHPG, n=3
  increase in total APP levels: 1.6 fold

## Cc1cccc(C#Cc2ccccc2)n1 [MPEP, 2-methyl-6-(phenylethynyl)pyridine]
[2]; FRAXAD mice
  % Death: 7%
  % WR: 60%
[2]; Fmr-1 KO mice
  % Death: 0%
  % WR: 14%
[2]; Tg2576 mice
  % Death: 0%
  % WR: 0%
[2]; WT mice
  % AGS: 0%
  % Death: 0%
  % WR: 0%
mGluR5
  mGluR5 antagonist character: potent and highly selective noncompetitive antagonists
[3]; FMR-1 KO female
  MPEP + PTZ % death: 0%
  MPEP + PTZ % grade 3: 33%
[3]; FMR-1 KO male
  MPEP + PTZ % death: 0%
[3]; FMR-1 KO male, 30 mg/kg
  MPEP + PTZ % grade 3: 25%
[3]; FRAXAD female
  MPEP + PTZ % death: 40* %
  MPEP + PTZ % grade 3: 100%
[3]; FRAXAD male
  MPEP + PTZ % death: 60* %
  MPEP + PTZ % grade 3: 80%
[3]; Tg2576 female
  MPEP + PTZ % death: 50* %
  MPEP + PTZ % grade 3: 75%
[3]; Tg2576 male
  MPEP + PTZ % death: 75%
  MPEP + PTZ % grade 3: 100%
[3]; WT female
  MPEP + PTZ % death: 0%
[3]; WT female, 30 mg/kg
  MPEP + PTZ % grade 3: 0%
[3]; WT male
  MPEP + PTZ % death: 0%
[3]; WT male, 30 mg/kg
  MPEP + PTZ % grade 3: 20%
